Assays:
[1] = molecular target: T1, SIRT1 (Homo sapiens, UniProt Q96EB6); experiment: Trp mass spectrometry assay of SIRT1 activity; assay type: biochemical; settings: Trp assay; for Trp EC1.5 (μM): concentration giving 150% activation of SIRT1; for Emax: percent maximum fold activation, read-out: Trp % Fold Act
T1 sequence (Q96EB6 1-747): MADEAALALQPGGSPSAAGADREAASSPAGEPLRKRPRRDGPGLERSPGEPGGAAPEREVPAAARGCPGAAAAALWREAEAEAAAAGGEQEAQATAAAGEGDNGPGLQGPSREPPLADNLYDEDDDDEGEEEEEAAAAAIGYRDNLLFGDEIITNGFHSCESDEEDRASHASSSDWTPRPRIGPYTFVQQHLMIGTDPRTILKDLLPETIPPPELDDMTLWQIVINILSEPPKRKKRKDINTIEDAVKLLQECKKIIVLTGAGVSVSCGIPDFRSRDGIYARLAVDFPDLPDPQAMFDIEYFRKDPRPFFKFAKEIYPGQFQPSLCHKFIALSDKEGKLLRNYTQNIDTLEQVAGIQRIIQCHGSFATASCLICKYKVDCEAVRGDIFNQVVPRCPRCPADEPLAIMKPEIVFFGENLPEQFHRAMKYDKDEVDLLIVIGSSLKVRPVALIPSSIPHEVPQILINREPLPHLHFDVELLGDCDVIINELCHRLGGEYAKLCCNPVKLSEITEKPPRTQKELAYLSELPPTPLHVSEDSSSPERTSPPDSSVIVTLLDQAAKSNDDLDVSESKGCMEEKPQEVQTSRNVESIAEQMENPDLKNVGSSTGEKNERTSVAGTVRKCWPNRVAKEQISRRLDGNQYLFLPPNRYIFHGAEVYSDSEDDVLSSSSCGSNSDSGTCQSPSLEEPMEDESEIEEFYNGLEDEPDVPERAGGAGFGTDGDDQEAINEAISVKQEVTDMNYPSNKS
Source text: Mass spectrometry based assays were used to identify modulators of SIRT1 activity. The TAMRA based assay utilized a peptide having 20 amino acid residues as follows: Ac-EE-K(biotin)-[…](Ac)NleSTEG-K(5TMR)-EE-NH2 (SEQ ID NO: 1), wherein K(Ac) is an acetylated lysine residue and Nle is a norleucine. The peptide was labeled with the fluorophore 5TMR (excitation 540 nm/emission 580 nm) at the C-terminus. The sequence of the peptide substrate was based on p53 with several modifications. In addition, the methionine residue naturally present in the sequence was replaced with the norleucine because the methionine may be susceptible to oxidation during synthesis and purification. The Trp based assay utilized a peptide having an amino acid residues as follows: Ac-R-H-K-K(Ac)-W-NH2 (SEQ ID NO: 2).
The Trp mass spectrometry assay was conducted as follows. 0.5 μM peptide substrate and 120 μM βNAD^+ were incubated with 10 nM SIRT1 for 25 minutes at 25° C. in a reaction buffer (50 mM HEPES pH 7.5, […], 1 mM DTT, 0.05% BSA). The SIRT1 protein was obtained by cloning the SirT1 gene into a T7-promoter containing vector, which was then expressed in BL21(DE3) bacterial cells and purified as described in further detail below. Test compound was added at varying concentrations to this reaction mixture and the resulting reactions were monitored. After the 25 minute incubation with SIRT1, 10 μL of 10% formic acid was added to stop the reaction. The resulting reactions were sealed and frozen for later mass spec analysis. The relative SIRT1 activity was then determined by measuring the amount of O-acetyl-ADP-ribose (OAADPR) formed (or, alternatively, the amount of deacetylated Trp peptide generated) by the NAD-dependent sirtuin deacetylation reaction in the presence of varying concentrations of the test compound versus control reactions lacking the test compound. The degree to which the test agent activated deacetylation by SIRT1 was expressed as EC1.5 (i.e., the concentration of compound required to increase SIRT1 activity by 50% over the control lacking test compound), and Percent Maximum Activation (i.e., the maximum activity relative to control (100%) obtained for the test compound).
A control for inhibition of sirtuin activity was conducted by adding 1 μL of 500 mM nicotinamide as a negative control at the start of the reaction (e.g., permits determination of maximum sirtuin inhibition). A control for activation of sirtuin activity was conducted using 10 nM of sirtuin protein, with 1 μL of DMSO in place of compound, to determine the amount of deacetylation of the substrate at a given time point within the linear range of the assay. This time point was the same as that used for test compounds and, within the linear range, the endpoint represents a change in velocity.
For the above assay, SIRT1 protein was expressed and purified as follows. The SirT1 gene was cloned into a T7-promoter containing vector and transformed into BL21(DE3). The protein was expressed by induction with 1 mM IPTG as an N-terminal His-tag fusion protein at 18° C. overnight and harvested at 30,000×g. Cells were lysed with lysozyme in lysis buffer (50 mM Tris-HCl, 2 mM Tris[2-carboxyethyl]phosphine (TCEP), 10 μM ZnCl2, 200 mM NaCl) and further treated with sonication for […] for complete lysis. The protein was purified over a Ni-NTA column (Amersham) and fractions containing pure protein were pooled, concentrated and run over a sizing column (Sephadex S200 26/60 global). The peak containing soluble protein was collected and run on an Ion-exchange column (MonoQ). Gradient elution (200 mM-500 mM NaCl) yielded pure protein. This protein was concentrated and dialyzed against dialysis buffer (20 mM Tris-HCl, 2 mM TCEP) overnight. The protein was aliquoted and frozen at −80° C. until further use.

[2] = molecular target: T1, SIRT1; experiment: TAMRA based mass spectrometry assay of SIRT1 activity; assay type: biochemical; settings: TAMRA assay; for TAMRA EC1.5 (μM): concentration giving 150% activation of SIRT1; for Emax: percent maximum fold activation, read-out: TAMRA % Fold Act
In short: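 Recombinant N-terminal His-tagged human SIRT1 (10 nM, E. coli) incubated 25 min at 25 °C with 0.5 μM 5TMR-labelled p53-derived acetyl-peptide and 120 μM βNAD+ in Tris-acetate pH 8 buffer with DTT and 0.05% BSA, compound at varying concentrations. Stopped with formic acid; deacetylated peptide or OAADPR measured by mass spectrometry relative to DMSO controls.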

| Compound | Trp EC1.5 (μM) [1] | Emax [1] | TAMRA EC1.5 (μM) [2] | Emax [2] |
| --- | --- | --- | --- | --- |
| O=C(Nc1cnc2ccc(-c3ccccc3OC(F)(F)F)nn12)c1cnccn1 [Compound 314] | B (EC1.5 1-25 μM) | < 350% | – | – |
| Cc1nc2ccc(-c3ccccc3OC[C@H](O)CO)nn2c1C(=O)Nc1ccc(F)cn1 [Compound 819] | – | – | A (EC1.5<1 μM) | ≥ 350% |
| Cc1nc2ccc(-c3cccc(OC[C@H](O)CO)c3)nn2c1C(=O)Nc1ccncc1F [Compound 822] | – | – | A (EC1.5<1 μM) | < 350% |
| Cc1cc(C)nc(NC(=O)c2c(C)nc3c(OC[C@H](O)CO)cc(-c4ccccc4C(F)(F)F)nn23)c1 [Compound 834] | A (EC1.5<1 μM) | ≥ 350% | – | – |
| Cc1nc2c(OC[C@H](O)CO)cc(-c3ccccc3C(F)(F)F)nn2c1C(=O)Nc1ccc(F)cn1 [Compound 835] | A (EC1.5<1 μM) | ≥ 350% | – | – |
| O=C(Nc1ccccn1)c1cnc2ccc(N3CC[C@H](F)C3)nn12 [Compound 836] | B (EC1.5 1-25 μM) | ≥ 350% | – | – |
| O=C(Nc1cccnc1)c1cnc2ccc(N3CC[C@H](F)C3)nn12 [Compound 837] | B (EC1.5 1-25 μM) | < 350% | – | – |
| O=C(Nc1ccc(F)cn1)c1cnc2ccc(N3CC[C@H](F)C3)nn12 [Compound 838] | B (EC1.5 1-25 μM) | < 350% | – | – |
| O=C(Nc1ccncc1F)c1cnc2ccc(N3CC[C@H](F)C3)nn12 [Compound 839] | B (EC1.5 1-25 μM) | < 350% | – | – |
| Cc1nc2ccc(N3CC[C@H](F)C3)nn2c1C(=O)Nc1ccccn1 [Compound 840] | B (EC1.5 1-25 μM) | ≥ 350% | – | – |
| Cc1nc2ccc(N3CC[C@H](F)C3)nn2c1C(=O)Nc1cccnc1 [Compound 841] | A (EC1.5<1 μM) | ≥ 350% | – | – |
| Cc1nc2c(OC[C@H](O)CO)cc(-c3ccccc3C(F)(F)F)nn2c1C(=O)Nc1ccccn1 [Compound 842] | A (EC1.5<1 μM) | ≥ 350% | – | – |
| Cc1nc2c(OC[C@H](O)CO)cc(-c3ccccc3C(F)(F)F)nn2c1C(=O)Nc1ccncc1F [Compound 843] | A (EC1.5<1 μM) | ≥ 350% | – | – |
| Cc1nc2ccc(N3CC[C@H](F)C3)nn2c1C(=O)Nc1ccc(F)cn1 [Compound 844] | B (EC1.5 1-25 μM) | < 350% | – | – |
| Cc1nc2ccc(N3CC[C@H](F)C3)nn2c1C(=O)Nc1cnccn1 [Compound 845] | B (EC1.5 1-25 μM) | < 350% | – | – |
| Cc1nc2ccc(N3CC[C@H](F)C3)nn2c1C(=O)Nc1ccncc1F [Compound 846] | A (EC1.5<1 μM) | < 350% | – | – |
| O=C(Nc1ccccn1)c1cnc2ccc(-c3cccc(OC[C@H](O)CO)c3)nn12 [Compound 847] | A (EC1.5<1 μM) | ≥ 350% | – | – |
| Cc1cccc(NC(=O)c2cnc3ccc(-c4cccc(OC[C@H](O)CO)c4)nn23)n1 [Compound 848] | A (EC1.5<1 μM) | ≥ 350% | – | – |
| Cc1cccc(NC(=O)c2c(C)nc3c(OC[C@H](O)CO)cc(-c4ccccc4C(F)(F)F)nn23)n1 [Compound 849] | A (EC1.5<1 μM) | ≥ 350% | – | – |
| Cc1cc(NC(=O)c2c(C)nc3c(OC[C@H](O)CO)cc(-c4ccccc4C(F)(F)F)nn23)nc(C)n1 [Compound 850] | A (EC1.5<1 μM) | ≥ 350% | – | – |
| O=C(Nc1ccncn1)c1cnc2ccc(N3CC[C@H](F)C3)nn12 [Compound 851] | B (EC1.5 1-25 μM) | < 350% | – | – |
| Cc1nc2ccc(N3CC[C@H](F)C3)nn2c1C(=O)Nc1ncccn1 [Compound 852] | B (EC1.5 1-25 μM) | ≥ 350% | – | – |
| O=C(Nc1cnccn1)c1cnc2ccc(N3CC[C@H](F)C3)nn12 [Compound 853] | C (EC1.5>25 μM) | < 350% | – | – |
| O=C(Nc1ncccn1)c1cnc2ccc(N3CC[C@H](F)C3)nn12 [Compound 854] | B (EC1.5 1-25 μM) | < 350% | – | – |
| Cc1nc2ccc(N3CC[C@H](F)C3)nn2c1C(=O)Nc1ccncn1 [Compound 855] | B (EC1.5 1-25 μM) | ≥ 350% | – | – |

The remaining lines, values ahead:

| Trp EC1.5 (μM) [1] | Emax [1] | TAMRA EC1.5 (μM) [2] | Emax [2] | Compound |
| --- | --- | --- | --- | --- |
| B (EC1.5 1-25 μM) | < 350% | – | – | O=C(Nc1cccnn1)c1cnc2ccc(N3CC[C@H](F)C3)nn12 [Compound 856] |
| A (EC1.5<1 μM) | ≥ 350% | – | – | Cc1nc2ccc(N3CC[C@H](F)C3)nn2c1C(=O)Nc1cccnn1 [Compound 857] |
| B (EC1.5 1-25 μM) | < 350% | – | – | O=C(Nc1cccnc1)c1cnc2ccc(-c3cccc(OC[C@H](O)CO)c3)nn12 [Compound 858] |
| A (EC1.5<1 μM) | ≥ 350% | – | – | Cc1ccnc(NC(=O)c2c(C)nc3c(OC[C@H](O)CO)cc(-c4ccccc4C(F)(F)F)nn23)c1 [Compound 859] |
| A (EC1.5<1 μM) | ≥ 350% | – | – | Cc1cc(NC(=O)c2c(C)nc3c(OC[C@H](O)CO)cc(-c4ccccc4C(F)(F)F)nn23)cc(C)n1 [Compound 860] |
| A (EC1.5<1 μM) | ≥ 350% | – | – | Cc1cnc(NC(=O)c2c(C)nc3c(OC[C@H](O)CO)cc(-c4ccccc4C(F)(F)F)nn23)s1 [Compound 861] |
| A (EC1.5<1 μM) | ≥ 350% | – | – | Cc1nc2c(OC[C@H](O)CO)cc(-c3ccccc3C(F)(F)F)nn2c1C(=O)Nc1cccnc1 [Compound 862] |
| A (EC1.5<1 μM) | ≥ 350% | – | – | Cc1nc2c(OC[C@H](O)CO)cc(-c3ccccc3C(F)(F)F)nn2c1C(=O)Nc1ccncc1 [Compound 863] |
| A (EC1.5<1 μM) | ≥ 350% | – | – | Cc1cncc(NC(=O)c2c(C)nc3c(OC[C@H](O)CO)cc(-c4ccccc4C(F)(F)F)nn23)c1 [Compound 864] |
| A (EC1.5<1 μM) | ≥ 350% | – | – | Cc1ccc(NC(=O)c2c(C)nc3c(OC[C@H](O)CO)cc(-c4ccccc4C(F)(F)F)nn23)cn1 [Compound 865] |
| B (EC1.5 1-25 μM) | ≥ 350% | – | – | CN(C)[C@H]1CCN(c2ccc3ncc(C(=O)Nc4ccccn4)n3n2)C1 [Compound 866] |
